Experimental data reported in patent publication US8063072B2 (Roche Palo Alto LLC, priority 2009, dated 2011).

Key:
[1] = biological target: T1, HCV polymerase (NS5B570n-Con1) (Hepatitis C virus genotype 1b, UniProt Q9WMX2); assay: HCV NS5B RNA polymerase activity; format: biochemical, HCV Con1 strain
T1 construct: contains a 21 amino acid deletion at the C-terminus relative to the full-length HCV polymerase; 6-histidine (His6) (N); made in house; host or cells: E. coli BL21(DE) pLysS, plasmid pET17b
Description: The enzymatic activity of HCV polymerase (NS5B570n-Con1) was measured as the incorporation of radiolabeled nucleotide monophosphates into acid insoluble RNA products. Unincorporated radiolabeled substrate was removed by filtration and scintillant was added to the washed and dried filter plate containing radiolabeled RNA product. The amount of RNA product generated by NS5B570-Con1 at the end of the reaction was directly proportional to the amount of light emitted by the scintillant.
The N-terminal 6-histidine tagged HCV polymerase, derived from HCV Con1 strain, genotype 1b (NS5B570n-Con1) contains a 21 amino acid deletion at the C-terminus relative to the full-length HCV polymerase and was purified from E. coli strain BL21(DE) pLysS. The construct, containing the coding sequence of HCV NS5B Con1 (GenBank accession number AJ242654) was inserted into the plasmid construct pET17b, downstream of a T7 promoter expression cassette and transformed into E. coli. A single colony was grown overnight as a starter culture and later used inoculate 10 L of LB media supplemented with 100 μg/mL ampicillin at 37° C. Protein expression was induced by the addition of 0.25 mM isopropyl-β-D-thiogalactopyranoside (IPTG) when optical density at […] of the culture was between 0.6 and 0.8 and cells were harvested after 16 to 18 h at 30° C. NS5B570n-Con1 was purified to homogeneity using a three-step protocol including subsequent column chromatography on Ni-NTA, SP-Sepharose HP and Superdex 75 resins.
Each 50 μL enzymatic reaction contained 20 nM RNA template derived from the complementary sequence of the Internal Ribosome Entry Site (cIRES), 20 nM NS5B570n-Con1 enzyme, 0.5 μCi of tritiated UTP (Perkin Elmer catalog no. TRK-412; specific activity: 30 to 60 Ci/mmol; stock solution concentration from 7.5×10^-5 M to 20.6×10^-6 M), 1 μM each ATP, CTP, and GTP, 40 mM Tris-HCl pH 8.0, 40 mM NaCl, 4 mM DTT (dithiothreitol), 4 mM MgCl2, and 5 μl of compound serial diluted in DMSO. Reaction mixtures were assembled in 96-well filter plates (cat #MADVNOB, Millipore Co.) and incubated for 2 h at 30° C. Reactions were stopped by addition of 10% final (v/v) trichloroacetic acid and incubated for 40 min at 4° C. Reactions were filtered, washed with 8 reaction volumes of 10% (v/v) trichloroacetic acetic acid, 4 reaction volumes of 70% (v/v) ethanol, air dried, and 25 μl of scintillant (Microscint 20, Perkin-Elmer) was added to each reaction well.
The amount of light emitted from the scintillant was converted to counts per minute (CPM) on a Topcount® plate reader (Perkin-Elmer, Energy Range: Low, Efficiency Mode: Normal, Count Time: 1 min, Background Subtract: none, Cross talk reduction: Off).
Data was analyzed in Excel® (Microsoft) and ActivityBase® (Idbs®). The reaction in the absence of enzyme was used to determine the background signal, which was subtracted from the enzymatic reactions. Positive control reactions were performed in the absence of compound, from which the background corrected activity was set as 100% polymerase activity. All data was expressed as a percentage of the positive control. The compound concentration at which the enzyme-catalyzed rate of RNA synthesis was reduced by 50% (IC50) was calculated by fitting equation (i) to the data where“Y”
[formula] corresponds to the relative enzyme activity (in %), “% Min” is the residual relative activity at saturating compound concentration, “% Max” is the relative maximum enzymatic activity, “X” corresponds to the compound concentration, and “S” is the Hill coefficient (or slope).

HCV = conditions: cited from earlier work
[2] = system: genotype 1b replicon in HCV replicon cells (2209-23); assay: HCV replicon assay (Renilla luciferase reporter); format: cell-based, HCV genotype 1b; conditions: Hepatitis C virus, 72 h; cell line 2209-23, three days incubation, luciferase readout
in vitro = conditions: human

SMILES	melting point [°C]	IC50 [1] [µM]	effect on serum levels of HCV-RNA (HCV; monotherapy / sole treatment)	patients with serum amino transferase levels reduced to normal (HCV; monotherapy) [%]	IC50 [2] [µM]	CC50 (in vitro) [µM]
COC(=O)c1cc(C(C)(C)C)nc(-c2ccc[nH]c2=O)c1C#N [Compound I-4, 6-tert-Butyl-3-cyano-2′-oxo-1′,2′-dihydro-[2,3′]bipyridinyl-4-carboxylic acid methyl ester]	228 to 230	5.64	–	–	–	–
NC(=O)c1ncn([C@@H]2O[C@H](CO)[C@@H](O)[C@H]2O)n1 [ribavirin, 1-((2R,3R,4S,5R)-3,4-Dihydroxy-5-hydroxymethyl-tetrahydro-furan-2-yl)-1H-[1,2,4]triazole-3-carboxylic acid amide]	–	–	does not lower serum levels of HCV-RNA	40	–	–
CC(C)(C)c1cc(/C=C/c2ccc(NS(C)(=O)=O)cc2)c(O)c(-c2ccc[nH]c2=O)n1 [Compound I-2, N-{4-[(E)-2-(6-tert-Butyl-3-hydroxy-2′-oxo-1′,2′-dihydro-[2,3′]bipyridinyl-4-yl)-vinyl]-phenyl}-methanesulfonamide]	178 to 180	0.177	–	–	–	–
CC(C)(C)c1cc(CCc2ccc(NS(C)(=O)=O)cc2)c(O)c(-c2ccc[nH]c2=O)n1 [Compound I-3, N-{4-[2-(6-tert-Butyl-3-hydroxy-2′-oxo-1′,2′-dihydro-[2,3′]bipyridinyl-4-yl)-ethyl]-phenyl}-methanesulfonamide]	123 to 125	0.027	–	–	0.566	–
CC(C)(C)c1cc(CCc2ccc(NS(C)(=O)=O)cc2)c(C#N)c(-c2ccc[nH]c2=O)n1 [Compound I-6, N-{4-[2-(6-tert-Butyl-3-cyano-2′-oxo-1′,2′-dihydro-[2,3′]bipyridinyl-4-yl)-ethyl]-phenyl}-methanesulfonamide]	–	0.004	–	–	–	–
CC(C)(C)c1nc(/C=C/c2ccc(NS(C)(=O)=O)cc2)cc(-c2ccc[nH]c2=O)n1 [Compound I-7, N-(4-{(E)-2-[2-tert-Butyl-6-(2-oxo-1,2-dihydro-pyridin-3-yl)-pyrimidin-4-yl]-vinyl}-phenyl)-methanesulfonamide]	271 to 273	0.01	–	–	–	–
CC(C)(C)c1cc(/C=C/c2ccc(NS(C)(=O)=O)cc2)cc(-c2ccc[nH]c2=O)n1 [Compound I-1]	258 to 260	0.004	–	–	0.108	15.1
CC(C)(C)c1cc(C(=O)N[C@H]2CC[C@H](NS(C)(=O)=O)CC2)c(C#N)c(-c2ccc[nH]c2=O)n1 [Compound I-5, 6-tert-Butyl-3-cyano-2′-oxo-1′,2′-dihydro-[2,3′]bipyridinyl-4-carboxylic acid (4-methanesulfonylamino-cyclohexyl)-amide]	208 to 210	0.042	–	–	–	–
